# Experimental data published in patent US8664244B2, “Compounds as c-Met kinase inhibitors” (Advenchen Pharmaceuticals, LLC, priority 2010, dated 2014).
# Read-outs that look alike come from different tables or passages of the source.
# Columns and labels:
# Assay type in all cases: cell-based
# PC-3M = experiment: Tumor cell line inhibition, PC-3M; conditions: PC-3M tumor cell line
# A549 = experiment: Tumor cell line inhibition, A549
# SHG44 = experiment: Tumor cell line inhibition, SHG44
SMILES,IC50 (PC-3M; Homo sapiens),IC50 (A549; Homo sapiens),IC50 (SHG44; SHG-44),IC50 (PC-3M),IC50 (A549),IC50 (SHG44)
"COc1ccc(COC(=O)NC2(COc3cc4nccc(Oc5ccc(NC(=O)C6(C(=O)Nc7ccc(F)cc7)CC6)cc5F)c4cc3OC)CC2)cc1 [Example 1, 4-methoxybenzyl-1-((4-(2-fluoro-4-(1-(4-fluorophenylcarbamoyl)cyclopropanecarboxamido)-phenoxy)-6-methoxyquinolin-7-yloxy)methyl)cyclopropylcarbamate]",–,–,–,35.6 µM,3.32 µM,5.74 µM
"COc1ccc(COC(=O)NC2(COc3cc4nccc(Oc5ccc(NC(=O)C6(C(=O)Nc7ccc(F)c(F)c7)CC6)c(F)c5)c4cc3OC)CC2)cc1 [Example 7, 4-methoxybenzyl 1-((4-(4-(1-(3,4-difluorophenylcarbamoyl)cyclopropanecarboxamido)-3-fluoro-phenoxy)-6-methoxyquinolin-7-yloxy)methyl)cyclopropylcarbamate]",51 µM,36 µM,39.1 µM,–,–,–
"COc1ccc(COC(=O)NC2(COc3cc4nccc(Oc5ccc(NC(=O)C6(C(=O)Nc7ccccc7)CC6)cc5F)c4cc3OC)CC2)cc1 [Example 13, 4-methoxybenzyl 1-((4-(4-(1-(phenylcarbamoyl)cyclopropanecarboxamido)-2-fluoro-phenoxy)-6-methoxyquinolin-7-yloxy)methyl)cyclopropylcarbamate]",53.2 µM,45.4 µM,26 µM,–,–,–

# More lines, in order of falling IC50 (PC-3M; Homo sapiens), values ahead:
IC50 (PC-3M; Homo sapiens),IC50 (A549; Homo sapiens),IC50 (SHG44; SHG-44),SMILES,IC50 (PC-3M),IC50 (A549),IC50 (SHG44)
16.1 µM,0.0659 µM,0.589 µM,"COc1cc2c(Oc3ccc(N(C(=O)C4(C(N)=O)CC4)c4ccc(F)c(F)c4)c(F)c3)ccnc2cc1OCC1(NCC2CC2)CC1 [Example 11, N-(4-(7-((1-(cyclopropylmethylamino)cyclopropyl)methoxy)-6-methoxyquinolin-4-yloxy)-2-fluorophenyl)-N-(3,4-difluorophenyl)cyclopropane-1,1-dicarboxamide]",–,–,–
12.5 µM,0.549 µM,1.41 µM,"COc1cc2c(Oc3ccc(N(C(=O)C4(C(N)=O)CC4)c4ccccc4)c(F)c3)ccnc2cc1OCC1(N)CC1 [Example 14, N-(4-(7-((1-aminocyclopropyl)methoxy)-6-methoxyquinolin-4-yloxy)-2-fluorophenyl)-N-(phenyl)cyclopropane-1,1-dicarboxamide]",–,–,–
6.02 µM,2.22 µM,2.18 µM,"COc1cc2c(Oc3ccc(N(C(=O)C4(C(N)=O)CC4)c4ccc(F)c(F)c4)c(F)c3)ccnc2cc1OCC1(NC2CCOCC2)CC1 [Example 9, N-(3,4-difluorophenyl)-N-(2-fluoro-4-(6-methoxy-7-((1-(tetrahydro-2H-pyran-4-ylamino)-cyclopropyl)methoxy)quinolin-4-yloxy)phenyl)cyclopropane-1,1-dicarboxamide]",–,–,–
4.89 µM,0.0407 µM,0.199 µM,"COc1cc2c(Oc3ccc(N(C(=O)C4(C(N)=O)CC4)c4ccc(F)cc4)cc3F)ccnc2cc1OCC1(NC2CCOCC2)CC1 [Example 3, N-(3-fluoro-4-(6-methoxy-7-((1-(tetrahydro-2H-pyran-4-ylamino)cyclopropyl)methoxy)quinolin-4-yloxy)phenyl)-N-(4-fluorophenyl)cyclopropane-1,1-dicarboxamide]",–,–,–
